In patent US20250290117A1, “MOLECULAR PHENOTYPIC ANTIMICROBIAL SUSCEPTIBILITY TESTING” (priority 2024, published 2025):

Assays:
Escherichia coli [1] = test: Molecular phenotypic antimicrobial susceptibility test (extraction or DNA purification prior to PCR); type: cell-based
Protocol: (§1) Detection of Molecular Phenotypic Antimicrobial Susceptibility. Disclosed herein are the methods for the detection of phenotypic antimicrobial susceptibility via molecular methods. The present invention describes how a specimen 100 with a known microbial load is incubated and then exposed to a panel of antimicrobial agents to determine sensitivity (prevention of growth) or resistance (allowance of growth) to the specific antimicrobial agents tested utilizing molecular methods.
(§2) Sample Collection. Specimens 100 are collected from patients using sterile collection processes that are employed in routine clinical care. Specimens are transported to the testing facility in boric acid preservative.
Preparation of the Specimens for Testing. […] The process for pathogen isolation includes steps of harvesting the pathogen (e.g., via centrifugation), isolating pathogen DNA via a DNA isolation and/or purification kit, and performing PCR on the pathogen DNA via PCR components (e.g., primers, enzymes, buffers) as would be known to the skilled artisan. […] This aliquot is used for antimicrobial susceptibility testing if indicated based on the pathogen detection results. […] Specimens 100 with lower pathogen loads could also be utilized in the antibiotic susceptibility phase of testing with or without a longer incubation period.
(§3) Preparation of Antimicrobial Susceptibility Testing Plates. Antimicrobial solutions are prepared at known concentrations. The specific antimicrobials and their concentrations are selected based on the pathogen of interest and the described antimicrobial resistance breakpoints for that specimen pathogen and antimicrobial combination. These antimicrobials have been selected based on those commonly utilized by healthcare providers in routine clinical care for the specific type of suspected infection. The number and types of antimicrobials utilized can be customized based on the infection source, pathogen detected, patient-specific factors such as allergies or other health conditions (e.g., chronic kidney disease or concurrent medication use), or healthcare provider preferences such as antimicrobial availability or cost.
The antimicrobial solutions are prepared in liquid culture media (such as Muller Hinton Broth) to achieve the desired antimicrobial concentration and are then stored at −80° C. until use. For a given specimen, each antimicrobial is tested at a single or multiple antimicrobial concentration(s) which is its established breakpoints for sensitivity. The antimicrobial solutions are prepared and plated out for each specific pathogen. […] This allows for evaluation of pathogen load when no antimicrobial is present.
Specimen Exposure to Antimicrobial Agents. The 1 mL aliquot of the specimen 100 previously mixed with culture media and incubated is obtained. Using optical density measurements as a guide, the specimen 100 is diluted to 0.5 McFarland.
Antimicrobial exposure plates are typically placed into an incubator for 12-16 hours.
Nucleic Acid Amplification of Antimicrobial Agent Exposed Pathogens. The antimicrobial exposure plate is removed after the period of incubation. The specimen then undergoes a purification or lysis step. For example, the specimen may undergo a purification step (e.g., magnetic bead-based or other separation protocol to isolate genetic material). In another example, the specimen may undergo a cell lysis step. For example, buffer (e.g., lysis buffer) may be added and incubated in the thermal cycler for preparation for direct PCR. Next, the specimen may undergo a polymerase chain reaction (PCR) testing protocol, whereby a semi-quantitative PCR method is utilized. This may be completed either with or without a specific extraction protocol step. The pathogens can be individually targeted and detected, or a universal genetic sequence can be utilized to detect the antimicrobial susceptibility of the specimen as a whole.

Escherichia coli [2] = test: Traditional culture-based antimicrobial susceptibility test; type: cell-based
Source text: Table 3 illustrates the results of an example antimicrobial agent susceptibility test of the current application versus a traditional culture-based antimicrobial agent susceptibility test for multiple Escherichia coli isolates, in accordance with one or more embodiments of the disclosure. These specimens underwent extraction or DNA purification prior to PCR. As in Tables 1 and 2, the results of the test of the current application are similar to the results from the traditional test. […]
Table 8 illustrates the results of an example antimicrobial agent susceptibility test of the current application versus a traditional culture-based antimicrobial agent susceptibility test for a low level positive with <10,000 cells/mL in the original specimen. These specimens were tested with direct PCR (e.g., no extraction DNA purification step prior to PCR) after 16 hours of incubation. As in Tables 1, 2, 3, 5, and 7, the results of the test are similar to the traditional test. […]

P. aeruginosa [3] = test: as above; type: cell-based, Pseudomonas aeruginosa; details: P. aeruginosa isolate MRSN1938
Protocol: Table 5 illustrates the results of an example antimicrobial agent susceptibility test of the current application versus a traditional culture-based antimicrobial agent susceptibility test for multiple specimens with different pathogens, in accordance with one or more embodiments of the disclosure. These specimens were tested with direct PCR (e.g., no extraction DNA purification step prior to PCR). As in Tables 1, 2, and 3, the results of the test of the current application are similar to the results from the traditional test.
Result Reporting to Healthcare Providers. The results from the antimicrobial exposure are reported to the ordering healthcare provider. This information can be utilized by the healthcare provider when selecting an antimicrobial regimen for their individual patient based on these individual specimen results and patient specific factors. […] The current standard of care for antimicrobial susceptibility testing involves the growth, isolation, and exposure of pathogens to antimicrobials. This traditional culture and sensitivity process can take multiple days to obtain results, limiting the ability of healthcare providers to receive timely results to make actionable changes in patient care or management. Healthcare providers desire a method to obtain antimicrobial susceptibility results with quicker turn-around-time. This application discloses a molecular-based phenotypic antimicrobial susceptibility method which involves pathogen exposure to a panel of antimicrobial agents at their specified minimum inhibitory concentration breakpoints for sensitivity. This method allows for more timely antimicrobial susceptibility results.

P. aeruginosa [4] = test: Molecular phenotypic antimicrobial susceptibility test with direct PCR (no extraction DNA purification step); type: cell-based, Pseudomonas aeruginosa
Protocol: as §1
as §2, with “preservative. Specimens 100 are subsequently divided into a first sample 104 and a second sample 108.” for “preservative.”
Preparation of the Specimens for Testing. The specimens 100 are put through a pathogen identification process using PCR technology (e.g., using the first sample 104). The process for pathogen isolation includes steps of harvesting the pathogen (e.g., via centrifugation), isolating pathogen DNA via a DNA isolation and/or purification kit, and performing PCR on the pathogen DNA via PCR components (e.g., primers, enzymes, buffers) as would be known to the skilled artisan. Simultaneously, an additional aliquot of the same specimen (e.g., the second sample 108) is placed with liquid culture media and incubated for 4-6 hours. This aliquot is used for antimicrobial susceptibility testing if indicated based on the pathogen detection results. After pathogen identification is completed and if more than 10,000 cells/mL of bacteria (e.g., eligible bacteria) are detected in the source specimen, the second sample 108 then enters the antimicrobial susceptibility phase of testing. Specimens 100 with lower pathogen loads could also be utilized in the antibiotic susceptibility phase of testing with or without a longer incubation period.
as §3
The antimicrobial solutions are prepared in liquid culture media (such as Muller Hinton Broth) to achieve the desired antimicrobial concentration and are then stored at −80° C. until use. For a given specimen, each antimicrobial is tested at a single or multiple antimicrobial concentration(s) which is its established breakpoints for sensitivity. The antimicrobial solutions are prepared and plated out for each specific pathogen. This allows ease of use on the day of testing after defrosting the plate 112. Table 1, which illustrates the results of molecular phenotypic antimicrobial susceptibility testing when more than one organism is present in the source specimen, provides an example of an antimicrobial plate 112 prepared for this purpose. Of note, control wells containing only culture media are present on all plates 112. This allows for evaluation of pathogen load when no antimicrobial is present.
Specimen Exposure to Antimicrobial Agents. The 1 mL aliquot of the specimen 100 previously mixed with culture media and incubated is obtained. Using optical density measurements as a guide, the specimen 100 is diluted to 0.5 McFarland. […]

SMILES: CC(C)(O/N=C(\C(=O)N[C@@H]1C(=O)N2C(C(=O)[O-])=C(C[n+]3ccccc3)CS[C@H]12)c1csc(N)n1)C(=O)O [Ceftazidime]
- Ct at Sensitive Breakpoint (Escherichia coli [1]; E. coli isolate 1, Ct at control (average) 21.238): 25.605
- Molecular Antimicrobial Susceptibility Result (Escherichia coli [1]; E. coli isolate 1, at sensitive breakpoint): Sensitive (Antimicrobial wells with pathogen load detected below the control wells (typically >2 cycle thresholds later) may be reported as Sensitive)
- Ct at Sensitive Breakpoint (Escherichia coli [1]; E. coli isolate 2, Ct at control (average) 21.270): 22.508
- Molecular Antimicrobial Susceptibility Result (Escherichia coli [1]; E. coli isolate 2, at sensitive breakpoint): Sensitive (Antimicrobial wells with pathogen load detected below the control wells (typically >2 cycle thresholds later) may be reported as Sensitive)
- Ct at Sensitive Breakpoint (Escherichia coli [1]; E. coli isolate 3, Ct at control (average) 22.0995): 22.583
- Molecular Antimicrobial Susceptibility Result (Escherichia coli [1]; E. coli isolate 3, at sensitive breakpoint): Resistant
- Traditional Culture Result (Escherichia coli [2]; E. coli isolate 1 (Table 3)): Sensitive
- Traditional Culture Result (Escherichia coli [2]; E. coli isolate 2 (Table 3)): Sensitive
- Traditional Culture Result (Escherichia coli [2]; E. coli isolate 3 (Table 3)): Sensitive
- Traditional Culture Result (P. aeruginosa [3]): Sensitive
- Ct at Sensitive Breakpoint (P. aeruginosa [4]; P. aeruginosa isolate MRSN1938, Ct at control (average) 12.031): 24.596
- Molecular Antimicrobial Susceptibility Result (P. aeruginosa [4]; P. aeruginosa isolate MRSN1938, at sensitive breakpoint): Sensitive (Antimicrobial wells with pathogen load detected below the control wells (typically >2 cycle thresholds later) may be reported as Sensitive)
